System: HCV 1b-377-neo replicon cells
Assay: HCV replicon assay, HCV 1b-377-neo replicon cells (1b FRET)
Type: cell-based, Hepatitis C virus genotype 1b
Details: Hepatitis C virus, HCV 1b-377-neo replicon cells; HCV 1b genotype; read-out: EC50 range against HCV 1b (Table 2, Range)
In short: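 Compounds tested in HCV genotype 1b-377-neo replicon cells with a FRET read-out. Cells resistant to a reference NS5A inhibitor through a Y2065H NS5A mutation were run alongside wild-type cells.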

Compound | EC50 [nM]
COC(=O)N[C@H](C(=O)N1CCC[C@H]1c1nc(-c2ccc(-c3ccc(-c4cnc([C@@H]5CCCN5C(=O)[C@@H](NC(=O)OC)C5CCOCC5)[nH]4)cc3)cc2)c[nH]1)C1CCOCC1 [Example F38, methyl ((1S)-2-((2S)-2-(4-(4′-(2-((2S)-1-((2S)-2-((methoxycarbonyl)amino)-2-(tetrahydro-2H-pyran-4-yl)acetyl)-2-pyrrolidinyl)-1H-imidazol-5-yl)-4-biphenylyl)-1H-imidazol-2-yl)-1-pyrrolidinyl)-2-oxo-1-(tetrahydro-2H-pyran-4-yl)ethyl)carbamate] | 0.001 to 0.999
COC(=O)NC(C(=O)N1CCC[C@H]1c1nc(-c2ccc(-c3ccc(-c4cnc([C@@H]5CCCN5C(=O)C(NC(=O)OC)C5CCOCC5)[nH]4)cc3)cc2)c[nH]1)C1CCOCC1 (stereo partly drawn) [Example F39, methyl (2-((2S)-2-(4-(4′-(2-((2S)-1-(((methoxycarbonyl)amino)(tetrahydro-2H-pyran-4-yl)acetyl)-2-pyrrolidinyl)-1H-imidazol-5-yl)-4-biphenylyl)-1H-imidazol-2-yl)-1-pyrrolidinyl)-2-oxo-1-(tetrahydro-2H-pyran-4-yl)ethyl)carbamate] | 0.001 to 0.999
CCN[C@@H](C(=O)N1CCC[C@H]1c1ncc(-c2ccc(-c3ccc(-c4c[nH]c([C@@H]5CCCN5C(=O)[C@H](C)NC(=O)OC)n4)cc3)cc2)[nH]1)c1ccccc1 [Example F41, methyl ((1S)-2-((2S)-2-(4-(4′-(2-((2S)-1-((2R)-2-(ethylamino)-2-phenylacetyl)-2-pyrrolidinyl)-1H-imidazol-5-yl)-4-biphenylyl)-1H-imidazol-2-yl)-1-pyrrolidinyl)-1-methyl-2-oxoethyl)carbamate] | 0.001 to 0.999
CCN(CC)[C@@H](C(=O)N1CCC[C@H]1c1nc(-c2ccc(-c3ccc(-c4cnc([C@@H]5CCCN5C(=O)[C@@](C)(NC(=O)OC)C(C)C)[nH]4)cc3)cc2)c[nH]1)c1ccccc1 [Example F43, methyl ((1S)-1-(((2S)-2-(5-(4′-(2-((2S)-1-((2R)-2-(diethylamino)-2-phenylacetyl)-2-pyrrolidinyl)-1H-imidazol-4-yl)-4-biphenylyl)-1H-imidazol-2-yl)-1-pyrrolidinyl)carbonyl)-1,2-dimethylpropyl)carbamate] | 0.001 to 0.999
COC(=O)N[C@H](C(=O)N1CCC[C@H]1c1nc(-c2ccc(-c3ccc(-c4c[nH]c([C@@H]5CCCN5C(=O)[C@H](C)NC5CCOCC5)n4)cc3)cc2)c[nH]1)C(C)C [Example F48, methyl ((1S)-2-methyl-1-(((2S)-2-(4-(4′-(2-((2S)-1-(N-(tetrahydro-2H-pyran-4-yl)-L-alanyl)-2-pyrrolidinyl)-1H-imidazol-4-yl)-4-biphenylyl)-1H-imidazol-2-yl)-1-pyrrolidinyl)carbonyl)propyl)carbamate] | 0.001 to 0.999
COC(=O)N[C@H](C(=O)N1CCC[C@H]1c1nc(-c2ccc(-c3ccc(-c4c[nH]c([C@@H]5CCCN5C(=O)[C@@H](NC5CCOCC5)C(C)C)n4)cc3)cc2)c[nH]1)C(C)C [Example F49, methyl ((1S)-2-methyl-1-(((2S)-2-(4-(4′-(2-((2S)-1-(N-(tetrahydro-2H-pyran-4-yl)-L-valyl)-2-pyrrolidinyl)-1H-imidazol-4-yl)-4-biphenylyl)-1H-imidazol-2-yl)-1-pyrrolidinyl)carbonyl)propyl)carbamate] | 1 to 99
COC(=O)N[C@H](C(=O)N1CCC[C@H]1c1nc(-c2ccc(-c3ccc(-c4c[nH]c([C@@H]5CCCN5C(=O)CNC5CCOCC5)n4)cc3)cc2)c[nH]1)C(C)C [Example F51, methyl ((1S)-2-methyl-1-(((2S)-2-(4-(4′-(2-((2S)-1-(N-(tetrahydro-2H-pyran-4-yl)glycyl)-2-pyrrolidinyl)-1H-imidazol-4-yl)-4-biphenylyl)-1H-imidazol-2-yl)-1-pyrrolidinyl)carbonyl)propyl)carbamate] | 0.001 to 0.999
COC(=O)N[C@H](C(=O)N1CCC[C@H]1c1nc(-c2ccc(-c3ccc(-c4c[nH]c([C@@H]5CCCN5C(=O)[C@H](NC5CCOCC5)C(C)C)n4)cc3)cc2)c[nH]1)C(C)C [Example F52, methyl ((1S)-2-methyl-1-(((2S)-2-(4-(4′-(2-((2S)-1-(N-(tetrahydro-2H-pyran-4-yl)-D-valyl)-2-pyrrolidinyl)-1H-imidazol-4-yl)-4-biphenylyl)-1H-imidazol-2-yl)-1-pyrrolidinyl)carbonyl)propyl)carbamate] | 0.001 to 0.999
COC(=O)N[C@H](C(=O)N1CCC[C@H]1c1nc(-c2ccc(-c3ccc(-c4c[nH]c([C@@H]5CCCN5C(=O)[C@@H](C)NC5CCOCC5)n4)cc3)cc2)c[nH]1)C(C)C [Example F53, methyl ((1S)-2-methyl-1-(((2S)-2-(4-(4′-(2-((2S)-1-(N-(tetrahydro-2H-pyran-4-yl)-D-alanyl)-2-pyrrolidinyl)-1H-imidazol-4-yl)-4-biphenylyl)-1H-imidazol-2-yl)-1-pyrrolidinyl)carbonyl)propyl)carbamate] | 0.001 to 0.999
COC(=O)N[C@H](C(=O)N1CCC[C@H]1c1nc(-c2ccc(-c3ccc(-c4c[nH]c([C@@H]5CCCN5C(=O)[C@@H](NC(=O)O[C@H]5CCOC5)C(C)C)n4)cc3)cc2)c[nH]1)C(C)C [Example F54, (3S)-tetrahydro-3-furanyl ((1S)-1-(((2S)-2-(4-(4′-(2-((2S)-1-(N-(methoxycarbonyl)-L-valyl)-2-pyrrolidinyl)-1H-imidazol-4-yl)-4-biphenylyl)-1H-imidazol-2-yl)-1-pyrrolidinyl)carbonyl)-2-methylpropyl)carbamate] | 0.001 to 0.999
COC(=O)N[C@H](C(=O)N1CCC[C@H]1c1nc(-c2ccc(-c3ccc(-c4c[nH]c([C@@H]5CCCN5C(=O)[C@@H](NC(=O)OC5CCOCC5)C(C)C)n4)cc3)cc2)c[nH]1)C(C)C [Example F55, tetrahydro-2H-pyran-4-yl ((1S)-1-(((2S)-2-(4-(4′-(2-((2S)-1-(N-(methoxycarbonyl)-L-valyl)-2-pyrrolidinyl)-1H-imidazol-4-yl)-4-biphenylyl)-1H-imidazol-2-yl)-1-pyrrolidinyl)carbonyl)-2-methylpropyl)carbamate] | 0.001 to 0.999
COC(=O)N[C@H](C(=O)N1CCC[C@H]1c1nc(-c2ccc(-c3ccc(-c4c[nH]c([C@@H]5CCCN5C(=O)[C@@H](NC(=O)O[C@@H]5CCOC5)C(C)C)n4)cc3)cc2)c[nH]1)C(C)C [Example F56, (3R)-tetrahydro-3-furanyl ((1S)-1-(((2S)-2-(4-(4′-(2-((2S)-1-(N-(methoxycarbonyl)-L-valyl)-2-pyrrolidinyl)-1H-imidazol-4-yl)-4-biphenylyl)-1H-imidazol-2-yl)-1-pyrrolidinyl)carbonyl)-2-methylpropyl)carbamate] | 0.001 to 0.999
COC(=O)N[C@H](C(=O)N1CCC[C@H]1c1nc(-c2ccc(-c3ccc(-c4cnc([C@@H]5CCCN5C(=O)[C@H](NC(=O)OC)C5CCOCC5)[nH]4)cc3)cc2)c[nH]1)C(C)C [Example F57, methyl ((1S)-1-(((2S)-2-(4-(4′-(2-((2S)-1-((2R)-2-((methoxycarbonyl)amino)-2-(tetrahydro-2H-pyran-4-yl)acetyl)-2-pyrrolidinyl)-1H-imidazol-5-yl)-4-biphenylyl)-1H-imidazol-2-yl)-1-pyrrolidinyl)carbonyl)-2-methylpropyl)carbamate] | 0.001 to 0.999

Source: patent publication US8574563B2 (Bristol-Myers Squibb Company, priority 2006, dated 2013)
